The record followed here is ChEMBL document CHEMBL2203004, “New diterpene furanoids from the Antarctic lichen Huea sp” (Bioorg Med Chem Lett, 2012).

pIC50: −log10 of the molar value. The source made the active and inactive calls. The rule behind the calls is not given here.

Test [1] addresses T1, Tyrosine-protein phosphatase non-receptor type 1 (Homo sapiens) (UniProt P18031).
T1 sequence (whole entry): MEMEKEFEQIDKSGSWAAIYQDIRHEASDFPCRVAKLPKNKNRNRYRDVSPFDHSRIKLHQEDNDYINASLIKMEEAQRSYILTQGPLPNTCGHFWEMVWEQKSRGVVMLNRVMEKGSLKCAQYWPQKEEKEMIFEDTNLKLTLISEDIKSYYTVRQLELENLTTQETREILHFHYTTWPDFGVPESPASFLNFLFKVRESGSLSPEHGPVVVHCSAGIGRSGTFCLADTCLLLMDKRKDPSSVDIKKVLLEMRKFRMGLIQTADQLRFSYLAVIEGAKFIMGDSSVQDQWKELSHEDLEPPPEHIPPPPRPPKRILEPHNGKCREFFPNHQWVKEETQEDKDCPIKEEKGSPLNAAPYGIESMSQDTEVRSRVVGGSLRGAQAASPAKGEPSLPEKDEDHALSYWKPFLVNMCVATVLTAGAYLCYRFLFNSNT
Nature of the test: Noncompetitive inhibition of human recombinant PTP1B using p-nitrophenyl phosphate as substrate at 5.57 to 14.87 uM after 30 mins by Lineweaver-Burk plot analysis.

Test [2] has as its target T1, Tyrosine-protein phosphatase non-receptor type 1 (Homo sapiens). Kind of test: (§1) Inhibition of human recombinant PTP1B using p-nitrophenyl phosphate as substrate after 30 mins by spectrophotometric analysis.
For test [3], the target named is T2, Tyrosine-protein phosphatase non-receptor type 1 (Homo sapiens, UniProt P18031).
T2 sequence (P18031 whole entry): T1 sequence (whole entry)
The description is as §1.

Turning to `C=CC(C)(O)C/C=C/[C@@]1(C)CC[C@@H](C(C)(O)CC(=O)C=C(C)C)O1` (relative stereo), in test [1], the inhibition result was “Active”. The inhibition entry in test [2] is “Dose-dependent effect”. Moreover, the pIC50 in test [3] is 4.86.
